Measured values from patent US20260109690A1, “HDAC6 INHIBITORS AND METHOD OF THEIR USE” (Baerenkraft Therapeutics, LLC., priority 2024, published 2026).
Where “and” joins values, the source holds several entries; their conditions need not be identical. Identical values can stand only once.

Target: T1, HDAC6 (Homo sapiens, UniProt Q9UBN7)
T1 sequence (Q9UBN7 1-1215): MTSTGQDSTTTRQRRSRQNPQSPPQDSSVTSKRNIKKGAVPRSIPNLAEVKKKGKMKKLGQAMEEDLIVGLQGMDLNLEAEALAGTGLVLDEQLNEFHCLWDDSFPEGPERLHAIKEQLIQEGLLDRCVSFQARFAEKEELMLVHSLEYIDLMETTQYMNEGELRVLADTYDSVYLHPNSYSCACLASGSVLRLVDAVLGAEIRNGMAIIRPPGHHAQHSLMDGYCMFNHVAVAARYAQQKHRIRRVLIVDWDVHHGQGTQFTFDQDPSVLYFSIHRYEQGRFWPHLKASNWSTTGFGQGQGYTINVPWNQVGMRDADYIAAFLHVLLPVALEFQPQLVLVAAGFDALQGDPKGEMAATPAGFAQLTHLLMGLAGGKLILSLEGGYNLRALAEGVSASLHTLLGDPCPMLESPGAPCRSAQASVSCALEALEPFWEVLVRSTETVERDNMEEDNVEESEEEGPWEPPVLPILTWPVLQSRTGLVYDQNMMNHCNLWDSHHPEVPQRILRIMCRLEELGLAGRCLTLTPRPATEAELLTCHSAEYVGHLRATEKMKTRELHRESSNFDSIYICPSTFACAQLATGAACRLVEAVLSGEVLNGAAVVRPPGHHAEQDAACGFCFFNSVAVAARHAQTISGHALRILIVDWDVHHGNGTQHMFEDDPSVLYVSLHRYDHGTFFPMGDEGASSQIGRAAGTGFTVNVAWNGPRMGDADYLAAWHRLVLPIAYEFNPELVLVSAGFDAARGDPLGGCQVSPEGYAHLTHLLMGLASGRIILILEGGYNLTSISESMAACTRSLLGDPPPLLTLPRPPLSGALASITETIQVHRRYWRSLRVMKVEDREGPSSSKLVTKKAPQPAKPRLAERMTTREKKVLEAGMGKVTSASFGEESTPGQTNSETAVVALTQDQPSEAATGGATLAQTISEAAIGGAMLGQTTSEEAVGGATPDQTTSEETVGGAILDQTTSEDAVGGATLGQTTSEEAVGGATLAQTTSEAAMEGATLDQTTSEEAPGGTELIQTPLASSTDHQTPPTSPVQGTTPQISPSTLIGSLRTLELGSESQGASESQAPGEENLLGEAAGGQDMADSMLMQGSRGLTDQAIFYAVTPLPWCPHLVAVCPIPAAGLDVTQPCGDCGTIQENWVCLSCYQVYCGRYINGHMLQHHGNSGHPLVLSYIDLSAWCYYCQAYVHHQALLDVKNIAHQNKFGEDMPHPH
Experiment: NanoBRET assay for target engagement in HEK293 cells transiently transfected with HDAC6
Assay type: cell-based
Settings: HEK293 cells transfected with HDAC6-NanoLuc Fusion vector, 1 hour

Q: For `CC1CN(Cc2ccc(Nc3nccc(-c4ccc(C(=O)NO)cc4)n3)cc2F)CCO1` (racemic) [Compound I-8, 4-(2-((3-fluoro-4-((2-methylmorpholino)methyl)phenyl)amino)pyrimidin-4-yl)-N-hydroxybenzamide], which IC50 is on record?
A: 0.0347 µM and 0.035 µM
